Reference: the supplement of paper PMC9663587

Assays:
Test in all cases: GRmax, 72 h; higher = less effect;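 further: breast cell lines in 384-well plates, nine doses across a 10^4 range, Dye Drop imaging of viable cells vs DMSO and time-zero plates, GR 0 means no net growth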
184A1 = tested on: 184A1
BT474 = tested on: BT474
CAL851 = tested on: CAL851
EVSAT = tested on: EVSAT
HCC1143 = tested on: HCC1143
HCC1419 = tested on: HCC1419
HCC38 = tested on: HCC38
HCC70 = tested on: HCC70
MCF12A = tested on: MCF12A
MDAMB231 = tested on: MDAMB231
SKBR3 = tested on: SKBR3
UACC893 = tested on: UACC893
ZR751 = tested on: ZR751

| SMILES | GRmax, 72 h (184A1) | GRmax, 72 h (BT474) | GRmax, 72 h (CAL851) | GRmax, 72 h (EVSAT) | GRmax, 72 h (HCC1143) | GRmax, 72 h (HCC1419) | GRmax, 72 h (HCC38) | GRmax, 72 h (HCC70) | GRmax, 72 h (MCF12A) | GRmax, 72 h (MDAMB231) | GRmax, 72 h (SKBR3) | GRmax, 72 h (UACC893) | GRmax, 72 h (ZR751) |
| --- | --- | --- | --- | --- | --- | --- | --- | --- | --- | --- | --- | --- | --- |
| CC1(N)CCN(c2cnc(-c3cccc(Cl)c3Cl)c(N)n2)CC1 [SHP099] (max 10 µM) | 0.279 GR | 0.889 GR | 0.632 GR | 0.952 GR | 0.796 GR | 0.819 GR | 0.523 GR | 0.708 GR | 0.929 GR | 0.943 GR | 1.02 GR | 0.703 GR | 0.829 GR |
| CN1CCN(CCOc2cc(OC3CCOCC3)c3c(Nc4c(Cl)ccc5c4OCO5)ncnc3c2)CC1 [Saracatinib/AZD0530] (max 10 µM) | 0.24 GR | -0.548 GR | 0.116 GR | 0.0408 GR | 0.388 GR | -0.115 GR | 0.614 GR | -0.172 GR | 0.414 GR | 0.28 GR | 0.279 GR | 0.141 GR | 0.328 GR |
| Cc1cc(C(C)Nc2ccccc2)c2nc(N3CCOCC3)cc(=O)n2c1 (centres undefined) [TGX221] (max 10 µM) | 1 GR | 0.524 GR | 0.99 GR | 0.331 GR | 0.918 GR | 0.794 GR | 0.952 GR | 0.0049 GR | 1.05 GR | 0.851 GR | 0.75 GR | 0.939 GR | 0.239 GR |
| CN(C)C/C=C/C(=O)Nc1ccc(C(=O)Nc2cccc(Nc3ncc(Cl)c(-c4c[nH]c5ccccc45)n3)c2)cc1 [THZ1] (max 1 µM) | -0.232 GR | -0.658 GR | -0.549 GR | -0.245 GR | -0.318 GR | -0.386 GR | -0.568 GR | -0.944 GR | -0.312 GR | -0.505 GR | -0.789 GR | -0.525 GR | -0.163 GR |
| CN(C)C/C=C/C(=O)Nc1ccc(C(=O)N2CCC[C@@H](Nc3ncc(Cl)c(-c4c[nH]c5ccccc45)n3)C2)cc1 [THZ531] (max 1 µM) | -0.377 GR | -0.861 GR | -0.196 GR | 0.0226 GR | -0.23 GR | -0.294 GR | -0.337 GR | -0.933 GR | -0.0737 GR | -0.276 GR | -0.619 GR | -0.417 GR | -0.242 GR |
| CN(C)C/C=C/C(=O)Nc1ccc(C(=O)Nc2cccc(Nc3cc(-c4c[nH]c5ccccc45)ncn3)c2)cc1 [THZ-P1-2] (max 10 µM) | -0.344 GR | -0.697 GR | 0.468 GR | 0.76 GR | -0.404 GR | -0.578 GR | -0.509 GR | -0.837 GR | 0.364 GR | -0.691 GR | -0.777 GR | -0.761 GR | 0.262 GR |
| Cc1nc(-c2cn3c(n2)-c2ccc(-c4cnn(C(C)(C)C(N)=O)c4)cc2OCC3)n(C(C)C)n1 [Taselisib/GDC0032] (max 10 µM) | 0.0652 GR | -0.989 GR | -0.0171 GR | -0.535 GR | -0.0942 GR | -0.405 GR | 0.0628 GR | -0.685 GR | 0.074 GR | 0.0709 GR | -0.207 GR | -0.898 GR | -0.0193 GR |
| O=C1NC(=O)[C@@H](c2cn3c4c(cccc24)CCC3)[C@@H]1c1c[nH]c2ccccc12 [Tivantinib/ARQ197] (max 10 µM) | -0.121 GR | -0.323 GR | -0.326 GR | -0.336 GR | -0.312 GR | 0.163 GR | -0.27 GR | -0.566 GR | -0.0779 GR | -0.0845 GR | -0.352 GR | -0.248 GR | -0.0475 GR |
| Nc1ccc(-c2ccc3ncc4ccc(=O)n(-c5cccc(C(F)(F)F)c5)c4c3c2)cn1 [Torin2] (max 1 µM) | 0.0958 GR | -0.648 GR | -0.154 GR | -0.334 GR | -0.153 GR | -0.372 GR | -0.211 GR | -0.555 GR | 0.0112 GR | -0.0262 GR | -0.342 GR | -0.828 GR | -0.0631 GR |
| CC[C@@H]1C(=O)N(C)c2cnc(Nc3ccc(C(=O)N[C@H]4CC[C@H](N5CCN(CC6CC6)CC5)CC4)cc3OC)nc2N1C(C)C [Volasertib/BI6727] (max 1 µM) | -0.13 GR | -0.284 GR | -0.289 GR | -0.375 GR | -0.345 GR | 0.0685 GR | -0.26 GR | -0.205 GR | -0.0126 GR | -0.0186 GR | -0.349 GR | -0.424 GR | -0.17 GR |
| O=C(CCCCCCC(=O)Nc1ccccc1)NO [Vorinostat] (max 10 µM) | -0.0468 GR | -0.924 GR | -0.183 GR | -0.497 GR | -0.253 GR | -0.256 GR | -0.285 GR | -0.476 GR | 0.318 GR | -0.385 GR | -0.632 GR | -0.337 GR | -0.0452 GR |
| C=CC(=O)Nc1ccc(C(=O)Nc2[nH]nc3c2CN(C(=O)N[C@H](CN(C)C)c2ccccc2)C3(C)C)cc1 [YKL-5-124] (max 10 µM) | -0.0615 GR | -0.566 GR | -0.592 GR | -0.401 GR | -0.0844 GR | -0.411 GR | -0.39 GR | -0.835 GR | 0.0267 GR | -0.19 GR | -0.602 GR | -0.626 GR | 0.13 GR |
| CN1CCN(C(=O)c2ccc3cc(CCNc4ncnc5ccc(C#N)cc45)ccc3c2)CC1 [senexin b] (max 10 µM) | 0.809 GR | 0.107 GR | 0.615 GR | 0.642 GR | 0.452 GR | 0.445 GR | 0.614 GR | 0.458 GR | 0.776 GR | 0.892 GR | 0.797 GR | 0.71 GR | 0.845 GR |
